# Patent US6410249B1, “Odorant receptors” (priority 1999, dated 2002)
# Key:
# [1] = target: T1, receptor 5.24 (Carassius auratus, UniProt Q9PW88); experiment: cAMP accumulation in receptor 5.24-expressing HEK 293 cells; format: cell-based, goldfish; conditions: 0.1 mM or 10 mM
# T1 construct: The receptor 5.24 full length cDNA detects 1-2 bands in genomic DNA blots; expressed in transfected cells; host or cells: HEK 293 cells expressing SV40 large T antigen (293-TSA)
# T1 sequence (Q9PW88 25-877): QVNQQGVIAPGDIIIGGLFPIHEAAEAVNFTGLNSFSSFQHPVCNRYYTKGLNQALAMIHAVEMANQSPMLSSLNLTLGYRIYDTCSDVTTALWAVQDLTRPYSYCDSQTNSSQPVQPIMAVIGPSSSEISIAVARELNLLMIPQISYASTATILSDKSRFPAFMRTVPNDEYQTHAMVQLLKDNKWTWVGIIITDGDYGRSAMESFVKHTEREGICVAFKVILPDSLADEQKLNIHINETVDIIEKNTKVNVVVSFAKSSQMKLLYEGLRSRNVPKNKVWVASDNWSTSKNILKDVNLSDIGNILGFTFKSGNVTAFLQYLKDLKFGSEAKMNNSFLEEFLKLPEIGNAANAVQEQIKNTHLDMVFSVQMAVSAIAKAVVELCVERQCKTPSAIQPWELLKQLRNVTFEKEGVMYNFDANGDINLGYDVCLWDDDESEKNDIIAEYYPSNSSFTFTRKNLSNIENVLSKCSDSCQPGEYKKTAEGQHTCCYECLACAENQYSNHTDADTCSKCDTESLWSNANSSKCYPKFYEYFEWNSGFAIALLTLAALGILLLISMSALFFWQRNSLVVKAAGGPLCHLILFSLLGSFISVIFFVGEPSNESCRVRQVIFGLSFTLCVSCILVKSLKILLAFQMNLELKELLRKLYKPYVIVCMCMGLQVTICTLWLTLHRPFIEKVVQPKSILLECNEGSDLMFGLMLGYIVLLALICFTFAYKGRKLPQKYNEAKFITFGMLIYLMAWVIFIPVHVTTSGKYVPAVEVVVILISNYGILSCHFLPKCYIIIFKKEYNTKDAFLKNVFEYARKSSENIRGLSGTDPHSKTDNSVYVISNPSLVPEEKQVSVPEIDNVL
# Description: High-Affinity Binding of Radiolabeled L-Arginine to the Cloned Goldfish Odorant Receptor. To determine the affinity of the cloned goldfish amino acid receptor for basic amino acids, we characterized the ligand-receptor interaction by radiolabeled ligand binding to receptors expressed in mammalian cells. Human embryonic kidney (HEK) 293 cells were transfected with expression plasmids containing the receptor 5.24 cDNA insert. […] We next wished to determine what second messenger pathway receptor 5.24 couples to in HEK 293 cells. Control cells or cells expressing receptor 5.24 were exposed to varying concentrations of arginine and assayed for the accumulation of IP3 and cAMP.
# IP3 and cAMP Measurements. For measurements of IP3 and cAMP, cell lines 5.24-20 and 2.2-9 (negative control) were plated at densities of 3.5×10^5 cells/well in 24 well plates and incubated overnight in DMEM containing 10% FBS. All subsequent manipulations prior to reaction termination were performed at 37° C. in 5% CO2. […] IP3 levels were determined by a radioreceptor competition assay (Dupont NEN). For cAMP measurements, after the 3 hour amino acid-free preincubation cells were washed once with PBS, preincubated for 15 min in PBS containing 0.5 mM IBMX, and exposed to odorants in 400 μl PBS/0.5 mM IBMX for 30 min. cAMP levels were determined by radioimmunoassay (DuPont NEN).
# [2] = target: T1, receptor 5.24; experiment: biochemical; format: binding
# Description: Structure-Activity Properties of Compounds Interacting with the Cloned Goldfish Amino Acid Odorant Receptor. An understanding of how odorant receptors are used to encode olfactory information requires a characterization of the odorant specificities of individual receptor types. We therefore wished to determine the relative specificity of receptor 5.24 for structurally related ligands. […] Briefly, 3H-arginine binding to membranes from receptor 5.24-expressing HEK 293 cells was assayed in the absence or presence of varying concentrations of competitor ligands.
# Mammalian Cell Culture and DNA Transfections. For cell transfections, the receptor 5.24 cDNA insert was subcloned into two expression vectors: CMVI, which utilizes a human cytomegalovirus (CMV) immediate early promoter-enhancer plus the CMV intron A sequence to drive expression, and 608RX-2.2L, which is similar to CMVI except the cDNA insert is followed by an internal ribosome entry site (IRES)—enhanced green fluorescent protein (EGFP) coding sequence; 608RX-2.2L also contains a puromycin resistance gene. For transient assays, HEK 293 cells expressing the SV40 large T antigen (293 TSA cells) were transfected with the CMVI-receptor 5.24 or CMVI control plasmid using lipofectamine (Life Technologies) and harvested at 48 hours for membrane preparations. For stable cell lines, 293-TSA cells were transfected with the 608RX-2.2L-receptor 5.24 plasmid or a control 608RX-2.2L plasmid and selected in puromycin. Colonies showing high levels of EGFP fluorescence (as judged by epifluorescence microscopy) were picked, expanded, and screened for 3H-L-arginine binding (see below).
# Membrane Preparations and Ligand Binding Assays. Membranes for ligand binding assays were prepared by washing confluent cells three times with phosphate buffered saline (PBS), detaching cells with a PBS-based enzyme-free dissociation solution, and resuspending cells in ice-cold 5.0 mM Hepes, pH 7.4, 1.0 mM EDTA, 1.0 μg/ml leupeptin, 0.5 mM PMSF. All subsequent manipulations were performed on ice. After a 30 min incubation, the cell suspension was homogenized and centrifuged at 100,000×g for 30 min. Cell membrane pellets were washed twice by resuspension and centrifugation in binding buffer (20 mM Hepes, pH 7.4, 1.0 mM EDTA, 2.0 mM MgCl2, 1.0 μg/ml leupeptin, 0.5 mM PMSF), resuspended in binding buffer, and frozen at −80° C.
# Saturation binding assays were performed using 20-25 μg of membrane protein in a final volume of 100 μl binding buffer and increasing concentrations of [2,3-3H] L-arginine (specific activity=40 Ci/mmol; Dupont NEN). Non-specific binding was measured in the presence of 500 μM unlabeled L-arginine. Competition assays were performed with 500 nM [2,3-3H] L-arginine and increasing concentrations of competitor ligands. All incubations were performed at 4° C. for 60 min and terminated by rapid filtration through Whatman GF/C filters pretreated with ice cold 0.1% polyethyleneimine. Filters were washed three times with 4.0 ml ice cold 20 mM Hepes, pH 7.4, and retained radioactivity was measured by scintillation counting.
# [3] = system: goldfish olfactory system; conditions: cited from earlier work
# [4] = system: goldfish olfactory neurons; experiment: multi-unit recordings from the goldfish olfactory epithelium; format: cell-based; conditions: 100 μM
smiles,measurement,setting,value
N=C(N)NCCC[C@H](N)C(=O)O [L-Arginine],"change in cAMP levels, in words",[1],does not cause a detectable change
same,Ki,[2],0.08 µM
same,"binding to receptor 5.24, in words",[2]; comparative binding studies,highest affinities
same,in vivo threshold sensitivity,[3],ca. 1 nM
same,locations with spontaneous activity that responded,[4],25 out of 28
